Literature values as cited in patent US20130133101A1, “PLANTS RESISTANT TO PATHOGENS AND METHODS FOR PRODUCTION THEREOF” (GENOPLANTE-VALOR, priority 2010, published 2013).
Non-standard residues stand in square brackets, D forms with d. sY = N[C@@H](Cc1ccc(OS(=O)(=O)O)cc1)C(=O)O

Columns and labels:
Phoma nareissi = conditions: in vitro, dose-dependent manner
Botrytis tulipae = conditions: in vitro, dose-dependent manner

Row | Substance | mycelium growth inhibition (Phoma nareissi) | mycelium growth inhibition (Botrytis tulipae)
1 | H-[sY]I[sY]T-OH [PSKβ] | inhibit in vitro the mycelium growth | inhibit in vitro the mycelium growth
2 | H-[sY]I[sY]TQ-OH [PSKα] | inhibit in vitro the mycelium growth | inhibit in vitro the mycelium growth
